Results published in patent US5892029A, “3-hydroxy-2(1H)-pyridinone chelating agents” (priority 1997, dated 1999).
Entries after “also recorded” stand apart in the source; their conditions may differ. Where two headings read alike, the source gives them in different places.

Tests used:
[1] = Chemical and physical properties (solubility, pKa, pH, hygroscopicity); type: physicochemical
[2] = Fe(III) complex formation constants and pM; type: binding; details: pH 7.4; chelator 10 and metal ion 1 μM
Source text: The new HOPO monomers display high affinity for ferric ions. For example, 1-methyl-4(1-propylcarbamoyl)-3-hydroxy-2(1H)-pyridinone (Formula 9C, backbone=n-propyl, R'=H, R1 =methyl) has overall complex binding constants on the order of 10^28.7 M-3 for Fe(III). However, because of the 3:1 stoichiometry of the bidentate monomer/Fe complex, its stability is strongly dependent on its concentration (by the 3rd power). Generally, the pM concept was used to define the concentration of unchelated metal ion at physiological pH (7.4), and at chelator and metal ion concentrations (10 and 1 μM, respectively) which are those expected in the plasma of a chelator-treated patient. […] Since the multidentate 3,2-HOPO ligands have higher pM values than their bidentate analogs, they have stronger scavenging power for iron and actinides in vivo. For example, the bidentate compound 1-methyl-4(1-propylcarbamoyl)-3-hydroxy-2(1H)-pyridinone has a pM of 19.26 for Fe(III), while the hexadentate compound TREN-Me-3,2-HOPO (Formula 12, m=1) has a pM of 26.69 for Fe(III).

[3] = Promoting excretion of 238Pu(IV) in mice by orally administered ligands (Table 4); type: in vivo; details: 30 μmol/kg by gavage
Source text: (§1) Animal studies were completed using methods detailed in Radiation Protection Dosimetry, 1994, 53, 305: P. W. Durbin et al., "In Vivo Chelation of Am(III), Pu(IV), Np(V) and U(VI) in Mice by TREN-(Me-3,2-HOPO)"; Radiation Protection Dosimetry, 1989, 17, 351: P. W. Durbin et al., "Removal of ^238 Pu(IV) from Mice by Polycatechoylate, -Hydroxamate or -Hydroxypyridinonate Ligands"; Radiation Research, 1984, 99, 85: P. W. Durbin et al., "Specific Sequestering Agents for the Actinides . . . "; Radiation Research, 1984, 99, 106: P. W. Durbin et al., "Removal of Pu and Am from Beagles and Mice . . . "; Radiation Research, 1980, 81, 170: R. D. Lloyd et al., and P. W. Durbin et al., "Specific Sequestering Agents for the Actinides . . . ". The foregoing articles are hereby incorporated by reference.
Radionuclides used in the animal studies came from a variety of sources. […]
The novel chelating agents of the present invention were tested for their effectiveness in promoting excretion of ^238 Pu(IV) by oral administration to mice as follows. […] The ^238 Pu(IV) in skeleton, soft tissues, and separated excreta was determined by counting the ^234 U L x-rays. […]

[4] = Promoting excretion of 237Np(V) in mice by injected ligands (Table 5); type: in vivo
Source text: as §1
The ^237 Np(V) was obtained from J. Bucher of the LBL Actinide Chemistry group as NpO2 Cl in 0.1M HCl. It was diluted to the desired radioactivity concentration in 0.14M NaCl and the pH was adjusted to about 4.5 with NaOH just before use.
(§2) One of the novel chelating agents of the present invention, TREN-Me-3,2-HOPO, was also tested for effectiveness in promoting excretion of ^241 AM(III), ^237 Np(V), and ^232 U(VI) by injection into mice, as follows: Mice, in groups of five, each received an intravenous injection of (a) 1100 Bq of ^241 Am(III) in 0.2 mL of citrate buffer, (b) 150 Bq of ^232 UO2 Cl2 plus 3.6 mg of ^235 UO2 Cl2 in 0.2 mL of saline, or (c) 200 Bq of ^237 NpO2 Cl ([…] of ^237 NPO2 Cl) in 0.2 mL of saline. Three to five minutes later, 30 μmol/kg of TREN-Me-3,2-HOPO was injected intraperitoneally in 0.5 mL of saline. The mice were killed 24 hours after the actinide injection, frozen, and dissected after partial thawing. The skeleton, soft tissues, and separated excreta were radioanalyzed by counting the ^241 Am gamma rays, or the alpha particles emitted by ^237 Np or ^232 U (and its ingrowing daughters). Removal of those actinides from mice by injected TREN-Me-3,2-HOPO is summarized in Table 5, which also includes data for mice similarly treated with CaNa3 -DTPA and for actinide-injected controls. […] The structure of Am(III)-TREN-Me-3,2-HOPO is considered to resemble that of the Gd(III) complexes (see Example 20). Complexation of the fraction of Np(V) that is reduced in vivo to Np(IV) is considered to resemble that of Pu(IV). Complexation of U(VI) is considered to take place through binding to UO2^2+.
(§3) ^a Ligands (30 μmol/kg) i.p. at 3 to 5 min after actinide i.v.;

[5] = Promoting excretion of U(VI) in mice by injected ligands (Table 5); type: in vivo
Source text: as §1
The ^232 U was obtained from the Isotope Products Laboratory, Burbank, Calif., and ^234,235 U was obtained as U metal from long-held LBL storage. The two U sources were combined and dissolved in 6N HNO3, dried, and redissolved in 0.1N HCl. The daughter radioactivities were removed by elution from a Dowex-50X4 column (22 cm length, 0.7 cm diameter, 1.5 mL min^-1 flow rate) with 3.2N HCl. The U fractions (previously identified by a trial run with ^234,235 U alone) were combined, dried, and redissolved in 0.14M NaCl at pH 5.5.
as §2, §3

[6] = Promoting excretion of 241Am(III) in mice by injected ligands (Table 5); type: in vivo
Source text: as §1
Radionuclides used in the animal studies came from a variety of sources. The ^238 Pu(IV) citrate and ^241 Am(III) citrate solutions were prepared for animal injection by 8- to 10-fold dilution with 0.14M NaC1 (pH 4) of concentrated stock solutions (0.08M sodium citrate buffer) that had been held in frozen storage at Lawrence Berkeley Laboratory (hereinafter LBL) for several years. [The ^238 Pu(IV) was originally obtained from D. R. Atherton at the University of Utah Radiobiology Laboratory, Salt Lake City. The ^241 Am(III) solution had been obtained many years earlier from the LBL Actinide Chemistry group.]
as §2, §3

[7] = type: in vivo, mice; details: for body weight / plasma urea N: mean ± SD
Protocol: The test of acute toxicity of these novel ligands was carried out as follows. […] The ligand was dissolved in 0.5 to 1.0 ml of saline at pH 7 to 8. After a period of observation, the mice were killed, selected tissues were removed and fixed for histopathological examination,and unusual findings at autopsy were recorded.

[8] = 30 μmol/kg i.p. at 3 to 5 min after actinide i.v.
[9] = 30 μmol/kg i.p. at 3 to 5 min after actinide i.v., pooled
[10] = protocol I: 100 μmol/kg × 10 daily i.p., 11 d
[11] = protocol I: 100 μmol/kg × 10 daily i.p., 21 d
[12] = protocol II: 500 μmol/kg × 2 in 8 h i.p., 8 d

In the case of CCCNC(=O)c1ccn(C)c(=O)c1O [3-hydroxy-1-methyl-4(1-propylcarbamoyl)-2(1H)-pyridinone], the “solubility (in words)” value [1] is reported as “very soluble in water as well as organic solvents” and the “pM for Fe(III)” value [2] is reported as 19.26.

For Cn1ccc(C(=O)NCCN(CCNC(=O)c2ccn(C)c(=O)c2O)CCNC(=O)c2ccn(C)c(=O)c2O)c(O)c1=O [TREN-Me-3,2-HOPO], the “effectiveness of Pu removal, oral (in words)” value [3] was “the most effective both (by oral and injection) cases”, the “reduction of Np content (in words)” value ([4]; 30 μmol/kg i.p.) was “reduced the body content of all three actinides to a significantly greater degree than CaNa3 -DTPA; also recorded: the Np content of the soft tissues was significantly reduced” and the “Np(V) in liver at 24 h” value [4, 8] was 3.8 ± 5.7% of injected actinide. For the same compound, the “Np(V) in skeleton at 24 h” value [4, 8] was 34 ± 4.5% of injected actinide, the “Np(V) in soft tissue at 24 h” value [4, 8] was 3.1 ± 1.1% of injected actinide and the “Np(V) in whole body at 24 h” value [4, 8] was 42 ± 11% of injected actinide. For the same compound, the “Np(V) excreta: feces and GI contents” value [4, 9] was 17% of injected actinide, the “Np(V) excreta: urine 0-24 h” value [4, 9] was 40% of injected actinide and the “Np(V) in kidneys at 24 h” value [4, 9] was 1.0% of injected actinide. The “reduction of U content (in words)” value ([5]; 30 μmol/kg i.p.) was “reduced the body content of all three actinides to a significantly greater degree than CaNa3 -DTPA; also recorded: more than one-half of the U burden in the kidneys was removed”, the “U(VI) in kidneys at 24 h” value [5, 8] was 1.6 ± 0.3% of injected actinide and the “U(VI) in liver at 24 h” value [5, 8] was 0.6 ± 0.3% of injected actinide. The “U(VI) in skeleton at 24 h” value [5, 8] was 16 ± 2.4% of injected actinide, the “U(VI) in soft tissue at 24 h” value [5, 8] was 1.6 ± 0.3% of injected actinide and the “U(VI) in whole body at 24 h” value [5, 8] was 9.4 ± 6.0% of injected actinide. The “U(VI) excreta: feces and GI contents” value [5, 9] was 2.3% of injected actinide, the “U(VI) excreta: urine 0-24 h” value [5, 9] was 70% of injected actinide and the “reduction of Am content (in words)” value ([6]; 30 μmol/kg i.p.) was “reduced the body content of all three actinides to a significantly greater degree than CaNa3 -DTPA; also recorded: the Am content of all tissues was greatly reduced”. For the same compound, the “Am(III) in liver at 24 h” value [6, 8] was 1.0 ± 0.6% of injected actinide, the “Am(III) in skeleton at 24 h” value [6, 8] was 8.1 ± 6% of injected actinide and the “Am(III) in soft tissue at 24 h” value [6, 8] was 1.6 ± 0.6% of injected actinide. The “Am(III) in whole body at 24 h” value [6, 8] was 11 ± 1.4% of injected actinide, the “Am(III) excreta: feces and GI contents” value [6, 9] was 8% of injected actinide and the “Am(III) excreta: urine 0-24 h” value [6, 9] was 51% of injected actinide. The “Am(III) in kidneys at 24 h” value [6, 9] was 0.2% of injected actinide, the “pM for Fe(III)” value [2] was 26.69 and the body weight [7, 10] was 102 ± 1 percent control. The “plasma urea N” value [7, 10] was 112 ± 10 percent control, the no. of survivors ([7]; protocol I: 100 μmol/kg × 10 daily i.p., 11 d, of 5 mice) was 5 and the body weight [7, 11] was 106 ± 4 percent control. For the same compound, the “plasma urea N” value [7, 11] was 120 ± 9 percent control, the no. of survivors ([7]; protocol I: 100 μmol/kg × 10 daily i.p., 21 d, of 5 mice) was 5 and the body weight [7, 12] was 101 ± 4 percent control. For the same compound, the “plasma urea N” value [7, 12] was 119 ± 15 percent control and the no. of survivors ([7]; protocol II: 500 μmol/kg × 2 in 8 h i.p., 8 d, of 19 (TREN) or 10 (H(2,2)) mice) was 19.
